Measured values: patent publication US8399681B2, “Substituted aminothiazolone indazoles as estrogen related receptor-alpha modulators” (Janssen Pharmaceutica NV, priority 2009, dated 2013)
pEC50: −log10 of the molar value.

Target: T1, ERR1 (also known as ERR-α or ERR-1) (Homo sapiens, UniProt P11474)
T1 sequence (P11474 193-421 limits assumed): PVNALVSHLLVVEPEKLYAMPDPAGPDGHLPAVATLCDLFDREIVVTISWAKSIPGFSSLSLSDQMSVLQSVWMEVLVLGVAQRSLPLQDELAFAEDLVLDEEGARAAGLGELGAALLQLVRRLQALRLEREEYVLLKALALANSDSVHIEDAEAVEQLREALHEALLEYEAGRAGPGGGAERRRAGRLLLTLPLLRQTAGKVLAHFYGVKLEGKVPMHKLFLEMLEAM
Assay: TR-FRET assay (disruption of co-activator peptide binding)
Format: biochemical
Details: 6His-tagged ERR1 LBD, GST-hSRC2 co-activator polypeptide; average of 3 independent experiments
Description: Time-Resolved Fluorescence Resonance Energy Transfer (TR-FRET) experiments were performed to examine the functional response of ERR1 (also known as ERR-α or ERR-1) ligands. The TR-FRET assay described herein relied on the conformation of ERR1 for binding to a co-activator peptide: when a test compound binds to ERR1 and alters its conformation, it can disrupt the binding of the co-activator peptide. The components of this homogeneous secondary assay included: the ^6His-tagged-ERR1LBD, a GST-labeled-hSRC2 co-activator polypeptide and a fluorescent donor/acceptor pair from CIS bio international htrf/bioassays (Bedford, Mass.) using both an α-GST Europium Cryptate (Eu) label and an α^6His-XL665 (allophycocyanin) fluorophore.
For TR-FRET measurements, the reaction was buffered in 25 mM Tris pH 8, 2.5 mM Hepes, 20 mM KCl, 1 mM DTT, and 0.05 mg/mL BSA (-lipids). The final concentrations of reagents were 6 nM of ERR1LBD, 6 nM GST-SRC-2 peptide, 30 nM Eu cryptate, and 7.5 nM XL665. Reactions were allowed to reach equilibrium at 25° C. for 4-18 hours before collecting data on the Analyst from LJL Biosystems (Molecular Devices Sunnyvale, Calif.). As a time-resolved method, the samples were excited at […] and emission was collected for 1 ms at both 615 and 665 nm with delays of 400 and 75 μs, respectively. Dose response curves were fitted using a hyperbolic equation and the data reported is the average of 3 independent experiments.

pEC50 | SMILES
7.72 | NCC(=O)N1CCCN(C2=NC(=O)/C(=C/c3ccc4c(cnn4Cc4ccc(Cl)cc4C(F)(F)F)c3)S2)CC1 [Example 138, 2-[4-(2-Amino-acetyl)-[1,4]diazepan-1-yl]-5-[1-(4-chloro-2-trifluoromethyl-benzyl)-1H-indazol-5-ylmethylene]-thiazol-4-one]
7.96 | CC(C)(C)OC(=O)N1CCN(C2=NC(=O)/C(=C/c3ccc4c(c3)c(I)nn4Cc3ccc(C(F)(F)F)cc3C(F)(F)F)S2)C[C@@H]1CO [Example 279, tert-Butyl (2R)-4-[5-({1-[2,4-bis(trifluoromethyl)benzyl]-3-iodo-1H-indazol-5-yl}methylidene)-4-oxo-4,5-dihydro-1,3-thiazol-2-yl]-2-(hydroxymethyl)piperazine-1-carboxylate]
7.59 | O=C1N=C(N2C[C@@H]3C[C@H]2CN3)S/C1=C\c1ccc2c(cnn2Cc2ccc(C(F)(F)F)cc2C(F)(F)F)c1 [Example 69, 5-[1-(2,4-Bis-trifluoromethyl-benzyl)-1H-indazol-5-ylmethylene]-2-(2S,5S-diaza-bicyclo[2.2.1]hept-2-yl)-thiazol-4-one]
8.52 | COC[C@@H]1CN(C2=NC(=O)/C(=C/c3ccc4c(cnn4Cc4ccc(O)cc4C(F)(F)F)c3)S2)CCO1 [Example 236, 5-({1-[4-Hydroxy-2-(trifluoromethyl)benzyl]-1H-indazol-5-yl}methylidene)-2-[2(S)-(methoxymethyl)morpholin-4-yl]-1,3-thiazol-4(5H)-one]
7.67 | CC(C)(C)NC(=O)[C@@H]1CN(C2=NC(=O)/C(=C/c3ccc4c(cnn4Cc4ccc(C(F)(F)F)cc4C(F)(F)F)c3)S2)CCN1 [Example 220, 4-[5-({1-[2,4-Bis(trifluoromethyl)benzyl]-1H-indazol-5-yl}methylidene)-4-oxo-4,5-dihydro-1,3-thiazol-2-yl]-N-tert-butylpiperazine-2-(S)-carboxamide]
6.31 | CC(C)(O)c1ccc(Cn2ncc3cc(/C=C4\SC(N5CCO[C@@H](CO)C5)=NC4=O)ccc32)c(Cl)c1 [Example 231, 5-({1-[2-Chloro-4-(1-hydroxy-1-methylethyl)benzyl]-1H-indazol-5-yl}methylidene)-2-[2-(R)-(hydroxymethyl)morpholin-4-yl]-1,3-thiazol-4(5H)-one]
8.33 | COCC(=O)N1C[C@@H]2C[C@H]1CN2C1=NC(=O)/C(=C/c2ccc3c(cnn3Cc3ccc(Cl)cc3C(F)(F)F)c2)S1 [Example 89, 5-[1-(4-Chloro-2-trifluoromethyl-benzyl)-1H-indazol-5-ylmethylene]-2-[5-(2-methoxy-acetyl)-2S,5S-diaza-bicyclo[2.2.1]hept-2-yl]-thiazol-4-one]
8.30 | CS(=O)(=O)N1CCCN(C2=NC(=O)/C(=C/c3ccc4c(cnn4Cc4ccc(Cl)cc4C(F)(F)F)c3)S2)CC1 [Example 134, 5-[1-(4-Chloro-2-trifluoromethyl-benzyl)-1H-indazol-5-ylmethylene]-2-(4-methanesulfonyl-[1,4]diazepan-1-yl)-thiazol-4-one]
7.84 | CN1CCN(C2=NC(=O)/C(=C/c3ccc4c(cnn4Cc4ccc(Cl)cc4C4CC4)c3)S2)CC1 [Example 93, 5-[1-(4-Chloro-2-cyclopropyl-benzyl)-1H-indazol-5-ylmethylene]-2-(4-methyl-piperazin-1-yl)-thiazol-4-one]
7.94 | CN1CCN(C2=NC(=O)/C(=C/c3ccc4c(cnn4Cc4ccc(O)cc4C(F)(F)F)c3)S2)CC1 [Compound 22, 5-[1-(4-Hydroxy-2-trifluoromethyl-benzyl)-1H-indazol-5-ylmethylene]-2-(4-methyl-piperazin-1-yl)-thiazol-4-one]
7.24 | O=C1N=C(N2CCC(C(=O)NS(=O)(=O)N3CCCC3)CC2)S/C1=C\c1ccc2c(cnn2Cc2ccc(Cl)cc2C(F)(F)F)c1 [Example 174, Pyrrolidine-1-sulfonic acid (1-{5-[1-(4-chloro-2-trifluoromethyl-benzyl)-1H-indazol-5-ylmethylene]-4-oxo-4,5-dihydro-thiazol-2-yl}-piperidine-4-carbonyl)-amide]
